Source: US11364305B2, “Nanoparticle conjugates and uses thereof” (UNIVERSITY OF MIAMI, priority 2015, dated 2022)
[ ]: non-standard residue; d: D form. Abu = CC[C@H](N)C(=O)O; Ahx = NCCCCCC(=O)O

Key:
[1] = test system: human MDSCs; assay: Binding of 4PD/Alexa555-shRNA complexes to PBMCs from HNSCC patients by FACS; format: cell-based; details: 30 minutes at 4° C.
Method: Transfection was evaluated by FACS. In FIG. 6A, the red dot represent the cells transfected with the 4PD nanoparticles (i.e., CD33+IL4Rα+CD11b+CD14+HLADRlow monocytes/MDSC). FIG. 6B depicts the Alexa555 fluorescence in the indicated gates. In FIG. 6C, apparent Kd was calculated by incubating a fixed number of PBMCs with the indicated concentration of Alexa555shRNA/4PD complexes for 10 minutes at 4° C. and by evaluating the MFI in the relevant channel by FACS.
Next, the ability of 4PD to bind to the native IL4Rα receptor expressed on a cell membrane was evaluated. To this aim, the capacity of 4PD to recognize CD11b+myeloid cells isolated from tumor bearing mice was evaluated. Briefly, CD11b+MDSC were magnetically isolated from the spleen of Balb/c mice challenged 2 weeks before with the CT26 colon carcinoma. Purified cells were incubated at 37° C. for 15 minutes with Alexa555-shRNA loaded onto 4PD or dendrimers conjugated with scramble peptide as negative control. […] Cells were harvested and analyzed by FACS (FIG. 5B) or by fluorescence microscopy (FIG. 5C) to determine Alexa-555-shRNA transfection. […] Similarly (FIG. 6B), Alexa555 fluorescence can be found only on CD33+IL4Rα+ MDSCs (black histogram) but not in other subsets as the IL4Rα-CD33+ myeloid cells (purple) or the non-myeloid (CD33-IL4Rα−) cells. […]

[2] = test system: CD11b+MDSC; assay: Alexa555-shRNA transfection of CD11b+ MDSC from CT26 tumor bearing mice (FACS, fluorescence microscopy); format: cell-based, mouse; details: 15 minutes at 37° C., then 2 hours; FACS and fluorescence microscopy
Method: MDSC isolated from CT26 tumor bearing mice were transfected with: 1) Alexa555-siRNA alone (gray filled line in FIGS. 5A and 5B), 2) Alexa555-siRNA Dendrimer (black line, bottom panel, FIG. 5B) or 3) Alexa555-siRNA IL4Rα targeting dendrimer (black line, top panel, FIG. 5A). 45 minutes later cells were analyzed by immune-fluorescence microscopy (FIG. 5C) and by FACS (FIG. 5B) after gating on the alive (DAPI negative) cells.
Next, the ability of 4PD to bind to the native IL4Rα receptor expressed on a cell membrane was evaluated. To this aim, the capacity of 4PD to recognize CD11b+myeloid cells isolated from tumor bearing mice was evaluated. Briefly, CD11b+MDSC were magnetically isolated from the spleen of Balb/c mice challenged 2 weeks before with the CT26 colon carcinoma. Purified cells were incubated at 37° C. for 15 minutes with Alexa555-shRNA loaded onto 4PD or dendrimers conjugated with scramble peptide as negative control. After the incubation, cells were washed and incubated for an additional 2 hours at 37° C. in CTL media. Cells were harvested and analyzed by FACS (FIG. 5B) or by fluorescence microscopy (FIG. 5C) to determine Alexa-555-shRNA transfection. […] Similarly (FIG. 6B), Alexa555 fluorescence can be found only on CD33+IL4Rα+ MDSCs (black histogram) but not in other subsets as the IL4Rα-CD33+ myeloid cells (purple) or the non-myeloid (CD33-IL4Rα−) cells.

[3] = test system: MDSC and macrophages; assay: In vivo specificity of 4PD in CT26 bearing mice (multicolor flow cytometry of tumor, spleen, liver); design: species or system mouse; details: for Alexa555-shRNA accumulation in cell subsets: with cardiolipin
Method: Mice bearing the CT26 colon carcinoma (0.7 cm in diameter) were injected with Alexa555-siRNA loaded onto 4PD (black bar) or, as control, onto G5 PAMAM dendrimer functionalized with a random peptide. Two hours later, mice were sacrificed. Single cell suspensions from the spleen, the tumor and the liver were labeled with antibodies specific for Gr1, CD11b, F4/80, CD11c, CD3, CD4, and CD8 to identify granulocytic MDSC (gMDSC), monocytic MDSC (mMDSC), macrophages, dendritic cells, and helper and cytotoxic T cell. Fluorescence in the Alexa555 channel in each population was evaluated by FACSas a read out of 4PD mediated transfection.
In order to evaluate 4PD specificity in vivo, Balb/c mice bearing the CT26 colon carcinoma were injected intravenously with 20 ug of Alexa555-shRNA loaded into the 4PD platform with cardiolipin. Alexa 555-shRNA loaded dendrimer coupled with control peptide (a mixture of random peptides) were used as control. Cardiolipin was added to the complexes as described above (FIG. 3). Two hours after 4PD/Alexa555-shRNA systemic injection, mice were sacrificed and single cell suspension from the tumor, the spleen, and the liver was analyzed by multicolor flow cytometry (FIG. 10). In particular, cells were stained with CD11b, Gr1, CD11c and F4/80 specific antibodies to identify granulocytic− (g−) MDSCs (CD11bGr1high), monocytic− (m−) MDSCs (CD11b+GR1−), CD11b+Gr-1 negative myeloid cells, F4/80+macrophages, and CD11chigh DC. Additionally, cells were stained with antibodies specific for CD3, CD8, and CD4 to recognize T cell subsets.

[4] = test system: Bone marrow cells from C57Bl/6 mice; assay: Transfection of early hematopoietic progenitor cells from bone marrow (flow cytometry); format: cell-based, mouse
Method: FIG. 24B provides histograms that how the binding of 4PD (open histogram) over the control (filled histogram). The dot blot on the right summarize the binding from ten independent assays.
Bone marrow cells from C57Bl/6 mice were incubated for 10 minutes with 4PD loaded with Alexafluor 555 washed, counterstained with anti-lineage cocktail, anti-CD45, anti-Sca1, anti ckit, anti-CD34, anti-CD16/CD32, anti-CD150 and anti-CD48 antibodies, and analyzed by flow cytometry.
Importantly, the viability of the cells after transfection was higher than 95%.

## 4PD: G5 PAMAM dendrimer conjugated by maleidoamide chemistry to the IL4Rα targeting peptide of SEQ ID NO: 1 (Ac-LQRLFRAFR[Abu]LD[Ahx]C-NH2; also: Cys14 joined by maleimidobenzoyl thioether to G5 PAMAM dendrimer)
[1]
  cells bound by 4PD among PBMCs: binds preferentially to CD11b+CD14+CD33+IL4Rα+HLADRdim cells
[2]
  Alexa-555-shRNA transfection: can promote the internalization of Alexa-555 in the cells
[3]; non-myeloid leukocytes subsets, 2 hours after i.v. injection
  Alexa555-shRNA binding: Only non-specific level of binding was observed
[3]; spleen and liver, 2 hours after i.v. injection
  Alexa555-shRNA accumulation in cell subsets: accumulates mostly in F4/80+ tumor educated macrophages, and CD11b+GR1− myeloid cells
[3]; tumor, 2 hours after i.v. injection of 20 ug Alexa555-shRNA
  Alexa555-shRNA accumulation in cell subsets: accumulates mostly in the tumor associated gMDSCs, mMDSC, macrophages and CD11b+Gr1− myeloid cells
[4]; HSC, HPC1, HPC2, MPP, CMP, GMP, 10 minutes incubation
  transfection: able to efficiently transfect
[4]; bone marrow cells
  viability of the cells after transfection: higher than 95%
[4]; megakariocytes-erythrocyte precursors
  transfection: at lower level
